{"source": "patent US12048703B2", "about": "“Use of small molecule FAK activators to promote mucosal healing” (Regents of the University of Minnesota, priority 2018, dated 2024)", "key": {"FAK": {"molecular_target": "T1, FAK (Homo sapiens, UniProt Q05397)", "T1 construct": "endogenous in cells; host or cells: Caco-2", "T1 sequence (Q05397 whole entry)": "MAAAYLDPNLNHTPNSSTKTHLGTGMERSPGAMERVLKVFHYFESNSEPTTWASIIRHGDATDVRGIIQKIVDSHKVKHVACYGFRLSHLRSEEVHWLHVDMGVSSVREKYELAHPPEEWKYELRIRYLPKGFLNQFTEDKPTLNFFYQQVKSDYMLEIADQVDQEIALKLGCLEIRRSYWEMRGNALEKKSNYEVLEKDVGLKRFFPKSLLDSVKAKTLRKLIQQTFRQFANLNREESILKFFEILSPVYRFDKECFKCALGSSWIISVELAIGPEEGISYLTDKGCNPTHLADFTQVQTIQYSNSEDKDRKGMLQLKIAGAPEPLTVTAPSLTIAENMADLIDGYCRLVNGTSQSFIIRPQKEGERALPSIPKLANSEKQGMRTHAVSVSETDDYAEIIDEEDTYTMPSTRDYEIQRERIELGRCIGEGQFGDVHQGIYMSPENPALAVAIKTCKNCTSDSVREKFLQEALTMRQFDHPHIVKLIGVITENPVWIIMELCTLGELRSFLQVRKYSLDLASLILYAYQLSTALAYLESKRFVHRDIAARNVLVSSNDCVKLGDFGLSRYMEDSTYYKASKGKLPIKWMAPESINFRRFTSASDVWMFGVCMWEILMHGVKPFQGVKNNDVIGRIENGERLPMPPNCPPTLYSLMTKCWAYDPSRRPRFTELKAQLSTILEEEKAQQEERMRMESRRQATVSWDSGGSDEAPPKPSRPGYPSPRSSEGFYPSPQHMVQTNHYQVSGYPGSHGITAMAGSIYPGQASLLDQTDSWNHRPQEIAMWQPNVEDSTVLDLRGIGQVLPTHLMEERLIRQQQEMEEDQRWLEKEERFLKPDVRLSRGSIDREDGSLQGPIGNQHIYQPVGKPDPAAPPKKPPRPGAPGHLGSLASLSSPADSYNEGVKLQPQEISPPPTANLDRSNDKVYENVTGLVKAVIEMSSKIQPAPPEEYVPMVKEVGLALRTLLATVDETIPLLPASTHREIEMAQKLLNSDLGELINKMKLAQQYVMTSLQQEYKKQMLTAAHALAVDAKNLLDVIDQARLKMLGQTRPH", "assay": "FAK activation (FAK-Tyr-397 phosphorylation) by western blotting in Caco-2 cells in suspension", "format": "cell-based", "text": "FAK-Y397 western blotting: For studies of FAK activation, cells were maintained at ambient or increased pressure in bacteriologic plastic dishes pacificated with heat-inactivated bovine serum albumin to prevent adhesion and avoid adhesion-associated background FAK activation. Cells were lysed in lysis buffer, resolved by 10% SDS-PAGE, transferred to nitrocellulose and blotted with antibody to Tyr-397-phosphorylated FAK (Rabbit monoclonal antibody, ab81298, Abcam, USA) and anti-rabbit 680 (LI-COR, USA), before quantitation using Kodak Scientific Imaging Systems 1D, V.3.5.4 within the linear range of exposure (Oncotarget 2017). Total FAK (Primary antibody: Anti-FAK, clone 4.47 Merck, Germany and secondary antibody: anti-mouse 800, LI-COR, USA) served as a protein loading control."}, "Caco-2 monolayers": {"test_system": "Caco-2 monolayers", "assay": "Closure of circular wounds in Caco-2 monolayers on collagen I", "format": "cell-based, human", "details": "for monolayer wound closure: Caco-2 on collagen I; for stimulation of wound closure under FAK blockade: with FAK inhibitor PF-573328 (10 uM)"}, "Caco-2 cells": {"test_system": "Caco-2 cells", "assay": "Caco-2 proliferation", "format": "cell-based, human"}, "SHP2": {"molecular_target": "T2, SHP2 (Homo sapiens, UniProt Q06124)", "T2 sequence (Q06124 1-593)": "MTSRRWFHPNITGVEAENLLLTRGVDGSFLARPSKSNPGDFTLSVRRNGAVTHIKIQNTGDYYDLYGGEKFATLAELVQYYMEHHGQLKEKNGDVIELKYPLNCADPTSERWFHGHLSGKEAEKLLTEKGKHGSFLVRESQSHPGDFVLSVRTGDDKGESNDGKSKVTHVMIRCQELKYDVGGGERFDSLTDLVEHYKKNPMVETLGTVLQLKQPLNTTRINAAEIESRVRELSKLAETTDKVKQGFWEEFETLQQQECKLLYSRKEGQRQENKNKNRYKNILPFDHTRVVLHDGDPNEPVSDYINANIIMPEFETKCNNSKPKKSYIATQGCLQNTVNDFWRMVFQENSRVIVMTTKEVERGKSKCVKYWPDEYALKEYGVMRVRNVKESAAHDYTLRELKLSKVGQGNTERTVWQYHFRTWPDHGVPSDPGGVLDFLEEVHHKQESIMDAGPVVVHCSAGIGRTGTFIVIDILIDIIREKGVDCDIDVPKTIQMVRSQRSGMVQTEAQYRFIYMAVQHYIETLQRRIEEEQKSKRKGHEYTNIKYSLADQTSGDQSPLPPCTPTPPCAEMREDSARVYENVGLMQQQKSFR", "assay": "SHP2 dephosphorylation of a synthetic substrate", "format": "biochemical"}, "PTP1B-FAK interaction": {"molecular_target": "T3, PTP1B-FAK interaction (Homo sapiens, UniProt Q05397)", "T3 construct": "endogenous in cells; host or cells: Caco-2 (inferred)", "T3 sequence (Q05397 whole entry)": "as the sequence (Q05397 whole entry) above", "assay": "PTP1B-FAK interaction by FAK immunoprecipitation and Western for PTP1B", "format": "cell-based", "details": "10 nM; co-precipitation; listed as D3"}, "Pyk2 (also called FAK2)": {"molecular_target": "T4, Pyk2 (also called FAK2) (Homo sapiens, UniProt Q14289)", "T4 construct": "endogenous in cells", "T4 sequence (Q14289 whole entry)": "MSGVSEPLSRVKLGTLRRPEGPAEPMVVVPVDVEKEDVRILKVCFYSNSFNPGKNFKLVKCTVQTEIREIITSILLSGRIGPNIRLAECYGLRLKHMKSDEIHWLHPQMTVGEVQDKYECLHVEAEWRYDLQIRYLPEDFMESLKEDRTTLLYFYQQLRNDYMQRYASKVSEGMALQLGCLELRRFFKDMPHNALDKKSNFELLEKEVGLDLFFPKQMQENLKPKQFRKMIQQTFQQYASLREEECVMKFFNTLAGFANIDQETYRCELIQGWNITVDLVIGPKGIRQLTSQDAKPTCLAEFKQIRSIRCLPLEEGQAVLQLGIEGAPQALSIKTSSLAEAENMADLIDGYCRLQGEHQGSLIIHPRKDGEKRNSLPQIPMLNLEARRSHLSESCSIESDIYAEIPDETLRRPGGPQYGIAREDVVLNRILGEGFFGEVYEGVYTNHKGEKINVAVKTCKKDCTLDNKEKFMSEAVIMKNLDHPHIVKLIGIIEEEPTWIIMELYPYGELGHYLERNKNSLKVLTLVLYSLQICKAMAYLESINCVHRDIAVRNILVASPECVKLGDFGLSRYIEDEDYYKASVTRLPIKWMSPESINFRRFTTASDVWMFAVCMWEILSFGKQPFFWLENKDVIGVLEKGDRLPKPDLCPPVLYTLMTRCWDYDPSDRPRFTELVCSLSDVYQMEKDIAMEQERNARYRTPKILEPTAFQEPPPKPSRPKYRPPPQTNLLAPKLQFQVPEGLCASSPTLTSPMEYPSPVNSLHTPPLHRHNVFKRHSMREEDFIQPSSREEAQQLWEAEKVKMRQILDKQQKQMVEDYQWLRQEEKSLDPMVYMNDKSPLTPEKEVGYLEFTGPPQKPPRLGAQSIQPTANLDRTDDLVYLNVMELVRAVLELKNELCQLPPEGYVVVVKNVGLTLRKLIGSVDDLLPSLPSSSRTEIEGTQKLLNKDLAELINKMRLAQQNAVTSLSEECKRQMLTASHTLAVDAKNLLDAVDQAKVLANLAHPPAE", "assay": "Pyk2 activation (selectivity)", "format": "cell-based", "details": "up to 1000 nm (100× therapeutic threshold); listed as D3"}, "Src": {"molecular_target": "T5, Src (Homo sapiens, UniProt P12931)", "T5 construct": "endogenous in cells", "T5 sequence (P12931 whole entry)": "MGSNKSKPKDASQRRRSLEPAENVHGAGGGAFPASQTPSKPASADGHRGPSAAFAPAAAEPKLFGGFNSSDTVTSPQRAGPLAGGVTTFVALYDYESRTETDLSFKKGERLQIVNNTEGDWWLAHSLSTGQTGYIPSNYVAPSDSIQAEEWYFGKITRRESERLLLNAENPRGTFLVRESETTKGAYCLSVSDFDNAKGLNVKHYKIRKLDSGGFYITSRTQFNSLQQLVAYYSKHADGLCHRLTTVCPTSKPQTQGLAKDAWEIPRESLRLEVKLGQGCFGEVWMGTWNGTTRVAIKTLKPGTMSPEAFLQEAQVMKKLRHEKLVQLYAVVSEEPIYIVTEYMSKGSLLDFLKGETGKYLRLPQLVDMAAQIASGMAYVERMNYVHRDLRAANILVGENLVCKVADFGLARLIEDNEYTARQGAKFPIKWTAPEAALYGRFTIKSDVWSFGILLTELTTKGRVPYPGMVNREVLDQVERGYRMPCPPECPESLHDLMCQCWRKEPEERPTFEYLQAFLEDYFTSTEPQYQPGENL", "assay": "Src activation (selectivity)", "format": "cell-based", "details": "up to 1000 nm (100× therapeutic threshold); listed as D3"}, "ileal ulcer": {"test_system": "ileal ulcer", "assay": "Serosal acetic acid ileal ulcer healing in mice", "format": "in vivo", "details": "vs DMSO vehicle, listed as D3", "experimental": "An in vivo study was conducted utilizing C57BL6 Male/Female>8-week-old mice. During laparotomy under anesthesia, a filter paper soaked with 75% Acetic Acid was applied to ileal serosa for 15 seconds, a technique that produces reproducible mucosal ulcers at day 4 without opening the bowel. Flanigan T L et al., Am J Surg. 2008 November; 196(5): 683-689. doi:10.1016/j.amjsurg.2008.07.016.\nAt 1 day after ulcerogenesis, an intraperitoneal (IP) administration of Q6H-DMSO (2.4 ul+97.6 ul saline) was performed in a control sample, along with an IP injection of Q6H—Compound 3 (10 ug/ul) (2.4 ul+97.6 ul saline) in a test sample.\nAt 4 days after ulcerogenesis (day 3 after starting administration), the ulcer area was measured in each. The observed ulcer area and corresponding wound closure rate in vivo further evidences the effect of Compound 3.\n(§1) (A) The effects of dosing of compound D3 on murine intestinal ulcer healing was investigated. Brief serosal application of a filter paper disk soaked in dilute acetic acid was used to create well demarcated reproducible mucosal small bowel ulcerations without opening the bowel (47-49). In one study such murine ulcers were created, allowed 24 hours for recovery and ulcer formation, and then compound D3 was administered at 900 ug/kg Q6H for three days before sacrifice. […] Males and females responded similarly."}, "small bowel ulcer": {"test_system": "small bowel ulcer", "assay": "Indomethacin small bowel ulcer healing in mice", "format": "in vivo", "details": "4 days after indomethacin 15 mg/kg subQ, listed as D3", "experimental": "(§2) (B) Indomethacin ulcer healing. 15 mg/kg of indomethacin was administered subcutaneously, and treatment started with vehicle of drug 1 day after injury. At 4 days, ulcer area was calculated after sacrifice by morphometric analysis of photographs of the entire small bowel."}, "[1]": {"assay": "Toxicity assessment in acetic acid ulcer mice (weight, serum chemistry, histology)", "format": "in vivo", "details": "acetic acid ulcer model", "experimental": "as §1"}, "[2]": {"assay": "Body weight in indomethacin ulcer mice", "format": "in vivo", "details": "indomethacin model, trend not statistically significant", "experimental": "as §2"}}, "note": "“Also recorded” adds a separate entry of the source."}
{"smiles": "COc1ccc(C2CCCN2C(=O)Nc2cc(C(F)(F)F)ccc2N2CCOCC2)cc1", "note": "(stereo not shown) [Compound 3, 2-(4-methoxyphenyl)-N-[2-(morpholin-4-yl)-5-(trifluoromethyl)phenyl]pyrrolidine-1-carboxamide]", "values": [{"measurement": "FAK activation", "setting": "FAK; 10 pM to 1 nM", "result": "activation"}, {"measurement": "FAK activation", "setting": "FAK; 1 nM", "result": "demonstrated FAK activation"}, {"measurement": "FAK activation (FAK-Tyr-397 phosphorylation)", "setting": "FAK; 10 nM, Caco-2 cells, listed as D3", "result": "activating FAK; also recorded: activate FAK"}, {"measurement": "FAK-Y-397 phosphorylation under PTP PEST inhibition", "setting": "FAK; 10 nM, PTP LYP inhibitor 540217 (50 uM), listed as D3", "result": "does not prevent D3 induction of FAK-Y-397; also recorded: stimulates Caco-2 FAK-Y-397 phosphorylation independently of PTP PEST inhibition"}, {"measurement": "FAK activation in presence of genistein", "setting": "FAK; 100 ug/ml genistein, human Caco-2 cells, listed as D3", "result": "does not block D3 induction of FAK phosphorylation; also recorded: does not block D3 activation of FAK"}, {"measurement": "FAK activation, dose dependence", "setting": "FAK; 10-1000 nM", "result": "dose dependently activates FAK"}, {"measurement": "specificity vs. Pyk2", "setting": "FAK; FAK activation at 10 nM vs. Pyk2", "result": "at least 100 ×"}, {"measurement": "basal FAK-Tyr-397 phosphorylation", "setting": "FAK; ambient pressure, varying concentrations", "result": "increase basal FAK-Tyr-397 phosphorylation"}, {"measurement": "FAK activation", "setting": "FAK; concentration not given", "result": "especially potent"}, {"measurement": "FAK autophosphorylation in presence of FAK inhibitor PF573228", "setting": "FAK; with PF573228", "result": "does not prevent Compound 3 from increasing FAK autophosphorylation"}, {"measurement": "wound closure when proliferation is blocked", "setting": "Caco-2 monolayers; 10 nM, 4 mM OH-urea, listed as D3", "result": "stimulates wound closure even when proliferation is blocked; also recorded: accelerates closure of circular wounds"}, {"measurement": "monolayer wound closure", "setting": "Caco-2 monolayers; 10 nM", "result": "Increased wound closure rates"}, {"measurement": "monolayer wound closure", "setting": "Caco-2 monolayers; 10 nM, listed as D3", "result": "accelerate the closure of circular wounds"}, {"measurement": "wound closure rate", "setting": "Caco-2 monolayers; 100 μM, Caco-2 on Collagen-I", "result": "Increased wound closure rates"}, {"measurement": "stimulation of wound closure under FAK blockade", "setting": "Caco-2 monolayers", "result": "prevents the stimulation of wound healing by Compound 3"}, {"measurement": "stimulation of wound closure under FAK blockade", "setting": "Caco-2 monolayers; listed as D3", "result": "prevented D3 stimulation of monolayer wound closure; also recorded: prevents D3 stimulation of wound closure"}, {"measurement": "Caco-2 cell proliferation", "setting": "Caco-2 cells", "result": "Neither Compound 1 nor Compound 3 stimulated Caco-2 cell proliferation"}, {"measurement": "Caco-2 proliferation (cell number)", "setting": "Caco-2 cells; 48 hours, listed as D3", "result": "cell number did not increase; also recorded: does not stimulate Caco-2 proliferation"}, {"measurement": "SHP2 dephosphorylation of a synthetic substrate", "setting": "SHP2; 100 nM, vs. positive control reaction", "result": "neither D3 nor D4 (100 nM) blocks SHP2 dephosphorylation"}, {"measurement": "SHP2 activity in vitro", "setting": "SHP2; concentration not given, listed as D3", "result": "does not activate SHP2; also recorded: does not alter SHP2 activity"}, {"measurement": "PTP1B-FAK interaction", "setting": "PTP1B-FAK interaction", "result": "does not change FAK-PTPB association; also recorded: does not inhibit PTP1B-FAK interaction"}, {"measurement": "Pyk2 activation", "setting": "Pyk2 (also called FAK2)", "result": "does not activate Pyk2 or Src; also recorded: does not affect the kinase Pyk2"}, {"measurement": "Src activation", "setting": "Src", "result": "does not activate Pyk2 or Src; also recorded: does not affect"}, {"measurement": "% wound closure between day 1 and day 4", "setting": "ileal ulcer; 900 ug/kg IP every 6 hours", "result": "markedly higher; also recorded: stimulates ulcer healing"}, {"measurement": "ileal ulcer area", "setting": "ileal ulcer; day 4, 900 ug/kg IP every 6 hours for 3 days", "result": "substantially smaller ulcers; also recorded: reduces ileal ulcer area; also recorded: ulcers appear smaller"}, {"measurement": "total small bowel ulcer area", "setting": "small bowel ulcer", "result": "substantial and statistically significant reduction in ulcer area; also recorded: markedly decreases total small bowel ulcer area"}, {"measurement": "ALT", "setting": "[1]; remained within the normal range", "result": "slight elevation of ALT"}, {"measurement": "Histological evaluation of kidneys or livers", "setting": "[1]; vs vehicle", "result": "no differences"}, {"measurement": "Serum creatinine", "setting": "[1]; vs vehicle", "result": "not different"}, {"measurement": "postoperative body weight", "setting": "[1]; vs vehicle", "result": "did not display further weight loss"}, {"measurement": "body weight", "setting": "[2]", "result": "lost less weight"}]}
